{"source": "patent US12478598B2", "about": "(Rush University Medical Center, priority 2019, dated 2025)", "key": {"[1]": {"system": "lenti-GLDC shRNA-insulted mice", "assay": "Glycine level in cortex of lenti-GLDC shRNA-insulted mice (fluorometric assay kit)", "type": "in vivo, C57/BL6 mice", "settings": "oral, 14 d of treatment", "procedure": "FIG. 2. […] C57/BL6 mice (8-10 week old) received lentiviral GLDC shRNA (1×10^7 IFU/mouse in 100 μl HBSS) once via tail-vein injection. Therefore, control mice also received 100 μl HBSS via tail-vein. From 7 d after lenti-GLDC shRNA injection, mice were treated with different doses (50 and 100 mg/kg body wt/d) of CA daily via gavage. After 14 d of CA treatment, the level of glycine was measured in cortex by using a fluorometric assay kit (Biovision). Each mouse sample was run in triplicate. Results are mean±SEM of five mice per group.\n(§1) C57/BL6 mice (8-10 week old) received lentiviral GLDC shRNA (1×10^7 IFU/mouse in 100 μl Hank's Balanced Salt Solution or HBSS) once via tail-vein injection (FIG. 1). Therefore, a group of control mice received only 100 μl HBSS via tail-vein injection.\n(§2) Therefore, one group of lenti-GLDC shRNA-insulted mice were also treated with 100 μl 0.5% methyl cellulose as vehicle control.\nOn 14 d of treatment, mice were sacrificed and level of glycine was measured in brain (cortex)."}, "[2]": {"system": "lenti-GLDC shRNA-insulted mice", "assay": "Barnes maze spatial learning and memory in lenti-GLDC shRNA-insulted mice", "type": "in vivo, C57/BL6 mice", "settings": "50 and 100 mg/kg body wt/d, daily gavage, after 7 d of treatment", "procedure": "FIG. 1A-1B. […] C57/BL6 mice (8-10 week old) received lentiviral GLDC shRNA (1×10^7 IFU/mouse in 100 μl Hank's Balanced Salt Solution or HBSS) once via tail-vein injection. Therefore, control mice also received 100 μl HBSS via tail-vein. From 7 d after lenti-GLDC shRNA injection, mice were treated with different doses (50 and 100 mg/kg body wt/d) of CA daily via gavage. After 7 d of CA treatment, spatial learning and memory was monitored by Barnes maze (FIG. 1A, latency; FIG. 1B, errors). Results are mean±SEM of five mice per group.\nas §1, §2\nLenti-GLDC shRNA-insulted mice took longer time to find the correct hole (FIG. 1A) and made more errors (FIG. 1B) as compared to HBSS-treated control mice."}}, "data": [{"smiles": "O=C(O)C=Cc1ccccc1", "note": "[cinnamic acid]", "values": [{"measurement": "level of glycine in the cortex", "setting": "[1]; 50 mg/kg body wt/d", "value": "very effective in lowering the level of glycine"}, {"measurement": "level of glycine in the cortex", "setting": "[1]; 50 and 100 mg/kg body wt/d", "value": "strongly inhibited the level of glycine"}, {"measurement": "errors in reaching the target hole (Barnes maze)", "setting": "[2]", "value": "significantly reduced latency and errors"}, {"measurement": "latency in reaching the target hole (Barnes maze)", "setting": "[2]", "value": "significantly reduced latency"}]}]}
